SMILES strings stand for the structures. Converted amounts (≈) assume the structure as drawn. Read-outs that look alike come from different tables or passages of the source. Bounds are passed on as bounds.

The values below come from patent US11584744B2 (UNIVERSITY OF WASHINGTON, priority 2017, dated 2023).

The target of one assay is T1, MetRS (T. brucei) (Trypanosoma brucei brucei, UniProt Q38C91).
T1 sequence (Q38C91 1-773): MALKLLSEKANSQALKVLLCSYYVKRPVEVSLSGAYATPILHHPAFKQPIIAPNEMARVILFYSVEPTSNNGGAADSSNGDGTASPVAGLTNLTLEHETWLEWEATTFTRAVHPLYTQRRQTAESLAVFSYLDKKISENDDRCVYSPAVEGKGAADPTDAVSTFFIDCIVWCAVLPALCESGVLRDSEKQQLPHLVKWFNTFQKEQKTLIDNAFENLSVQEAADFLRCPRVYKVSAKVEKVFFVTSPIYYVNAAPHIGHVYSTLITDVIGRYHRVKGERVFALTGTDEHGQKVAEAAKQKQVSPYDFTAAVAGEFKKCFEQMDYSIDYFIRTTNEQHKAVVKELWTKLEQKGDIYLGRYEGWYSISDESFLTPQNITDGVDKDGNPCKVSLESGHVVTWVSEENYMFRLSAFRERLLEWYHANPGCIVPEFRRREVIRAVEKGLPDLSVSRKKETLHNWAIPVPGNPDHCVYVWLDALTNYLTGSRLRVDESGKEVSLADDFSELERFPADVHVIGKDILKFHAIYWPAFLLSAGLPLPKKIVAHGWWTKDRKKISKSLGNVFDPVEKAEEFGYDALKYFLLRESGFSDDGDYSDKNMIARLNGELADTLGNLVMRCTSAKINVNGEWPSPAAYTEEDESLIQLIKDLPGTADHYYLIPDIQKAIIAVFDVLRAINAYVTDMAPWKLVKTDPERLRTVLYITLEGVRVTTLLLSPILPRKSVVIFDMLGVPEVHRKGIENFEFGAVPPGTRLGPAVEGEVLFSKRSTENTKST
The assay can be described thus: MetRS (T. brucei) enzyme inhibition. Type of assay: biochemical.

The target in the next assay is MetRS (C. parvum) (Cryptosporidium parvum, UniProt Q5CVN0). The assay can be described thus: MetRS (C. parvum) enzyme inhibition. In kind it is biochemical. The conditions noted are these: read-out: (C) MetRS (C. parvum) IC50.
Another assay concerns T. brucei. The assay can be described thus: T. brucei growth inhibition. Type of assay: cell-based, Trypanosoma brucei. The conditions noted are these: Trypanosoma brucei; read-out: (D) T. brucei EC50.
The test system of assay [1] is S. aureus MSSA (ATCC 29213). The assay can be described thus: MIC susceptibility testing. In kind it is cell-based, Staphylococcus aureus. Conditions: S. aureus ATCC 29213; for MIC: Staphylococcus aureus, read-out: (F) S. aureus (ATCC 29213) MIC. An excerpt:
Media and culture conditions. Mueller Hinton broth (MHB), cation adjusted Mueller Hinton broth (CA-MHB), and Brain Heart Infusion broth (BHI) were purchased from Becton Dickinson (Franklin Lakes, N.J.). Tryptic soy agar (TSA) plates, TSA with 5% sheep blood plates, and CA-MHB with 3% laked horse blood were purchased from Remel (San Diego, Calif.). MHB was used to assay all Staphylococcus aureus strains. CA-MHB was used for Staphylococcus epidermidis, Enterococcus faecalis, Enterococcus faecium, Escherichia coli, and Pseudomonas aeruginosa. CA-MHB supplemented with 3% laked horse blood was used for Streptococcus pneumoniae and Streptococcus pyogenes. Staphylococcus, Enterococcus, Escherichia, and Pseudomonas strains were cultured at 37° C. with ambient air. Streptococcus strains were cultured in 37° C. with 5% CO2. Separate conditions for radiolabeled precursor uptake assays are described below.
Susceptibility testing: Minimum inhibitory concentration (MIC) determinations were performed in triplicate in 96-well round bottom microtiter plates (Corning, Corning N.Y.) as described by the Clinical and Laboratory Standards Institute (CLSI). Serial two-fold dilutions of compounds were added to plates in 50 μL volumes. An additional 50 μL of media containing bacterial cells (1×10^6 CFUs/mL) was then added to each well. Maximum DMSO concentrations were 0.5%. Plates were incubated at 37° C. for at least 18 h before reading the susceptibility result by optical absorbance (OD600) using a BioTek ELx800. The lowest concentration causing ≥90% growth inhibition compared to the untreated control was recorded as the MIC (and also corresponded to the visual MIC). MICs were measured at least twice and the higher value (if different) was recorded herein.

In another assay the test system is T. cruzi. The assay can be described thus: T. cruzi growth inhibition. Type of assay: cell-based, Trypanosoma cruzi. Conditions: read-out: (E) T. cruzi EC50.

Sequence of MetRS (C. parvum) (Q5CVN0 entry or part of it): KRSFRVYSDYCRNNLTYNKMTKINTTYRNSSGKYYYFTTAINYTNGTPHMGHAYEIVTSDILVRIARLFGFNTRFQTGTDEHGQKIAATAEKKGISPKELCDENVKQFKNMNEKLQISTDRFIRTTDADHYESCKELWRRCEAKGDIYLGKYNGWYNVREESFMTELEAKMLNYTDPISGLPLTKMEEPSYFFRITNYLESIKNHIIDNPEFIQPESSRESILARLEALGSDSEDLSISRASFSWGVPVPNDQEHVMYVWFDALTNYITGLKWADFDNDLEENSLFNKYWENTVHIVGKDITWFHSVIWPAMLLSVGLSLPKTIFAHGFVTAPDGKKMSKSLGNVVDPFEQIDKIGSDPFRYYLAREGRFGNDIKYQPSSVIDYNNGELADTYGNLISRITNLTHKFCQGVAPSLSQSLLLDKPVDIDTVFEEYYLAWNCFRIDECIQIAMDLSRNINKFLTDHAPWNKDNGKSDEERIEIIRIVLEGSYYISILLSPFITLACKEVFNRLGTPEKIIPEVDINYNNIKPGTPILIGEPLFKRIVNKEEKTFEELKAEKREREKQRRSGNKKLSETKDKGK

Turning to `COc1ccc(-c2cccn3c(SC)c(Cc4nc5nc(Cl)ccc5[nH]4)nc23)c(Cl)c1` [Compound 2150, 2-({5-chloro-1H-imidazo[4,5-b]pyridin-2-yl}methyl)-8-(2-chloro-4-methoxyphenyl)-3-(methylsulfanyl)imidazo[1,2-a]pyridine], the figures for the IC50 against MetRS (T. brucei) and on MetRS (C. parvum) were less than 40 nM and 468 nM, respectively. In the assay on T. brucei, the EC50 was 897 nM.
Turning to `CCn1c(Cc2ccc(Cl)cc2Cl)cn(C(C)c2nc3ccc(Cl)nc3[nH]2)c1=O` (stereo not shown) [Compound 2142, 1-(1-{5-chloro-1H-imidazo[4,5-b]pyridin-2-yl}ethyl)-4-[(2,4-dichlorophenyl)-methyl]-3-ethyl-2,3-dihydro-1H-imidazol-2-one], the figures for the IC50 at MetRS (T. brucei) and on MetRS (C. parvum) were less than 40 nM and 89.4 nM, respectively. Further, in the assay with T. brucei, the EC50 came to 489 nM.
As to `Cc1ccc(-c2cccc3nc(Cc4nc5nc(Cl)ccc5[nH]4)cn23)c(Cl)c1` [Compound 2165, 2-({5-chloro-1H-imidazo[4,5-b]pyridin-2-yl}methyl)-5-(2-chloro-4-methylphenyl)imidazo[1,2-a]pyridine], the IC50 against MetRS (T. brucei) is less than 40 nM; at MetRS (C. parvum), 326 nM. For the same compound, in the assay on T. brucei, the 50% effective concentration (EC50) was greater than 200 nM.
Take `Clc1ccc(Cc2cn(Cc3nc4nc(Cl)ccc4[nH]3)c(SCc3ccccn3)n2)c(Cl)c1` [Compound 2157, 2-({[1-({5-chloro-1H-imidazo[4,5-b]pyridin-2-yl}methyl)-4-[(2,4-dichlorophenyl)methyl]-1H-imidazol-2-yl]sulfanyl}methyl)pyridine]: the half-maximal inhibitory concentration (IC50) was less than 40 nM against MetRS (T. brucei) and 107 nM at MetRS (C. parvum). Further, the EC50 with T. brucei was greater than 200 nM.
For `CCn1c(Cc2cc(OC)c(OC)cc2Cl)cn(Cc2nc3nc(Cl)ccc3[nH]2)c1=O` [Compound 2275, 1-({5-chloro-1H-imidazo[4,5-b]pyridin-2-yl}methyl)-4-[(2-chloro-4,5-dimethoxyphenyl)methyl]-3-ethyl-2,3-dihydro-1H-imidazol-2-one], the EC50 with T. brucei is less than 0.91 nM.
For `CCn1c(Cc2ccc(OC)cc2Cl)cn(Cc2nc3cnc(Cl)nc3[nH]2)c1=O` [Compound 2286, 4-[(2-chloro-4-methoxyphenyl)methyl]-1-[(2-chloro-7H-purin-8-yl)methyl]-3-ethyl-2,3-dihydro-1H-imidazol-2-one], the EC50 in the assay with T. brucei is greater than 2000 nM.
On to `COc1cc(Cl)c(-c2cccc3nc(Nc4nc5nc(F)ccc5[nH]4)cn23)cc1OC` [Compound 2267, 5-(2-chloro-4,5-dimethoxyphenyl)—N-{5-fluoro-1H-imidazo[4,5-b]pyridin-2-yl}imidazo[1,2-a]pyridin-2-amine], for which the minimum inhibitory concentration (MIC) in assay [1] is greater than 2 µg/mL. Also, the concentration giving a half-maximal response (EC50) in the assay on T. brucei was greater than 2000 nM.
As for `COc1ccc(Cc2cn(Cc3nc4nc(F)ccc4[nH]3)c(=O)n2CC(F)F)c(Cl)c1` [Compound 2259, 4-[(2-chloro-4-methoxyphenyl)methyl]-3-(2,2-difluoroethyl)-1-({5-fluoro-1H-imidazo[4,5-b]pyridin-2-yl}methyl)-2,3-dihydro-1H-imidazol-2-one], in assay [1], the MIC came to 0.422 µg/mL (≈ 0.934 µM). For the same compound, the EC50 was 32.2 nM with T. cruzi (Trypanosoma cruzi) and 41.4 nM in the assay with T. cruzi.
Consider `Oc1cc(-c2cccc3nc(Cc4nc5nc(Cl)ccc5[nH]4)cn23)c(Cl)cc1Cl` [Compound 2268, 2,4-dichloro-5-[2-({5-chloro-1H-imidazo[4,5-b]pyridin-2-yl}methyl)imidazo[1,2-a]pyridin-5-yl]phenol], for which, in assay [1], the “(F) S. aureus (ATCC 29213) MIC” value was determined as 0.345 µg/mL and the MIC was determined as 0.69 µg/mL (≈ 1.55 µM). Also, the half-maximal effective concentration (EC50) in the assay on T. brucei was 186 nM.
The like results for `CCOc1cc(-c2cccc3nc(Cc4nc5nc(Cl)ccc5[nH]4)cn23)c(Cl)cc1Cl` [Compound 2269, 2-({5-chloro-1H-imidazo[4,5-b]pyridin-2-yl}methyl)-5-(2,4-dichloro-5-ethoxyphenyl)imidazo[1,2-a]pyridine] were, in that order, 1.44 µg/mL, 1.77 µg/mL (≈ 3.74 µM) and 102 nM.
